Laboratory results from the supplement of paper PMC11451515.

Test system: SEM cells
Test: cell viability relative to DMSO control; higher = less cytotoxic
Conditions: 48 h
Summary of the method: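 NOMO1, SEM and P12-Ichikawa leukemia cells spent at least four passages adapting to each medium before use. They were seeded at 500 cells/well (NOMO1, SEM) or 1000 cells/well (P12-Ichikawa) in 5 μl in 1536-well plates and pin-dosed with library compounds in DMSO at 11 threefold steps from 47 μM down to 0.79 nM. After 48 h at 37°C, CellTiter-Glo One luminescence was read. Viability is reported as a percentage of the DMSO wells on each plate, with cell-free wells as background.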

[1] = HPLM + 10% dialyzed FBS, 0.000781 µM
[2] = HPLM + 10% dialyzed FBS, 0.00234 µM
[3] = HPLM + 10% dialyzed FBS, 0.00702 µM
[4] = HPLM + 10% dialyzed FBS, 0.0211 µM
[5] = HPLM + 10% dialyzed FBS, 0.0632 µM
[6] = HPLM + 10% dialyzed FBS, 0.19 µM
[7] = HPLM + 10% dialyzed FBS, 0.569 µM
[8] = HPLM + 10% dialyzed FBS, 1.71 µM
[9] = HPLM + 10% dialyzed FBS, 5.12 µM
[10] = HPLM + 10% dialyzed FBS, 15.4 µM
[11] = HPLM + 10% dialyzed FBS, 46.1 µM
[12] = RPMI 5 mM glucose + 10% FBS, 0.000781 µM
[13] = RPMI 5 mM glucose + 10% FBS, 0.00234 µM
[14] = RPMI 5 mM glucose + 10% FBS, 0.00702 µM
[15] = RPMI 5 mM glucose + 10% FBS, 0.0211 µM
[16] = RPMI 5 mM glucose + 10% FBS, 0.0632 µM
[17] = RPMI 5 mM glucose + 10% FBS, 0.19 µM
[18] = RPMI 5 mM glucose + 10% FBS, 0.569 µM
[19] = RPMI 5 mM glucose + 10% FBS, 1.71 µM
[20] = RPMI 5 mM glucose + 10% FBS, 5.12 µM
[21] = RPMI 5 mM glucose + 10% FBS, 15.4 µM
[22] = RPMI 5 mM glucose + 10% FBS, 46.1 µM
[23] = RPMI 5 mM glucose + 10% dialyzed FBS, 0.000781 µM
[24] = RPMI 5 mM glucose + 10% dialyzed FBS, 0.00234 µM
[25] = RPMI 5 mM glucose + 10% dialyzed FBS, 0.00702 µM
[26] = RPMI 5 mM glucose + 10% dialyzed FBS, 0.0211 µM
[27] = RPMI 5 mM glucose + 10% dialyzed FBS, 0.0632 µM
[28] = RPMI 5 mM glucose + 10% dialyzed FBS, 0.19 µM
[29] = RPMI 5 mM glucose + 10% dialyzed FBS, 0.569 µM
[30] = RPMI 5 mM glucose + 10% dialyzed FBS, 1.71 µM
[31] = RPMI 5 mM glucose + 10% dialyzed FBS, 5.12 µM
[32] = RPMI 5 mM glucose + 10% dialyzed FBS, 15.4 µM
[33] = RPMI 5 mM glucose + 10% dialyzed FBS, 46.1 µM

SMILES | cell viability [1] [%] | cell viability [2] [%] | cell viability [3] [%] | cell viability [4] [%] | cell viability [5] [%] | cell viability [6] [%] | cell viability [7] [%] | cell viability [8] [%] | cell viability [9] [%] | cell viability [10] [%] | cell viability [11] [%] | cell viability [12] [%] | cell viability [13] [%] | cell viability [14] [%] | cell viability [15] [%] | cell viability [16] [%] | cell viability [17] [%] | cell viability [18] [%] | cell viability [19] [%] | cell viability [20] [%] | cell viability [21] [%] | cell viability [22] [%] | cell viability [23] [%] | cell viability [24] [%] | cell viability [25] [%] | cell viability [26] [%] | cell viability [27] [%] | cell viability [28] [%] | cell viability [29] [%] | cell viability [30] [%] | cell viability [31] [%] | cell viability [32] [%] | cell viability [33] [%]
NCCCCNCCCN | 74.8 | 80.2 | 75.4 | 89.7 | 97.8 | 99.5 | 87.6 | 99.2 | 101 | 19.7 | 3.89 | 107 | 73.5 | 97 | 93.9 | 108 | 110 | 99.1 | 106 | 106 | 43.5 | 4.26 | 88 | 83.7 | 94.2 | 75.6 | 106 | 103 | 93.7 | 99.4 | 91.9 | 21.4 | 4.65
CC[C@@]1(O)C(=O)OC\C2=C1\C=C\3N(CC4=C3N=C5C=CC=CC5=C4)C2=O | 126 | 116 | 110 | 103 | 40.3 | 14.9 | 7.26 | 4.92 | 4.54 | 4.65 | 5.06 | 105 | 86.8 | 87.2 | 55.3 | 15.3 | 11.4 | 6.29 | 3.5 | 3.72 | 3.35 | 4.07 | 127 | 119 | 105 | 77.2 | 28.1 | 13.4 | 7.26 | 4.41 | 4.16 | 4.15 | 4.83
COc1ccc(C2Sc3ccccc3N(CCN(C)C)C(=O)C2OC(C)=O)cc1 (stereo unspecified) | 99.2 | 111 | 106 | 115 | 113 | 117 | 115 | 112 | 106 | 112 | 108 | 113 | 109 | 86 | 99.4 | 103 | 111 | 111 | 105 | 99.2 | 110 | 69 | 87.2 | 112 | 99.6 | 101 | 107 | 115 | 107 | 109 | 124 | 95.5 | 85.8
CN(C)c1nc(Cc2ccc(NC(=O)c3ccc4ccccc4c3)cc2)nc(Cl)c1CC(=O)O | 120 | 114 | 112 | 116 | 109 | 111 | 138 | 113 | 105 | 110 | 105 | 110 | 116 | 127 | 108 | 107 | 110 | 110 | 93.8 | 107 | 102 | 105 | 119 | 115 | 136 | 122 | 126 | 108 | 112 | 107 | 111 | 137 | 108
Nc1cc(C(F)(F)F)c(-c2cc(N3CCOCC3)nc(N3CCOCC3)n2)cn1 | 118 | 121 | 99 | 113 | 113 | 88.5 | 72.2 | 43.4 | 14 | 6.54 | 5.09 | 88.9 | 89.2 | 88.1 | 102 | 90 | 64.2 | 75.6 | 27.4 | 6.68 | 3.92 | 2.34 | 113 | 131 | 121 | 123 | 118 | 91.1 | 74.1 | 37.6 | 14.6 | 5.59 | 3.9
CNC[C@H](O)c1cccc(O)c1 | 66.9 | 68.9 | 98.8 | 23.9 | 86.8 | 93.1 | 98.1 | 103 | 103 | 101 | 108 | 93 | 55.3 | 100 | 15.4 | 88.7 | 96.7 | 91.7 | 78.1 | 98.2 | 104 | 116 | 89 | 73 | 89.5 | 19.9 | 111 | 98.8 | 101 | 110 | 110 | 98.4 | 111
COc1ccc2[nH]c([S+]([O-])Cc3ncc(C)c(OC)c3C)nc2c1 (stereo unspecified) | 83.2 | 84.8 | 66.8 | 87.9 | 71.9 | 70.5 | 86.6 | 42.6 | 72.8 | 74.9 | 75.7 | 83.8 | 91 | 83.9 | 101 | 77.3 | 100 | 96.8 | 63.8 | 87.5 | 87.1 | 69.8 | 81.4 | 83.5 | 77 | 95.8 | 76.7 | 86.8 | 105 | 69.7 | 76.3 | 83.6 | 68.3
CC(O)(C#Cc1ccc2c(c1)N(c1nc(N)ncc1Cl)CC2)c1nccs1 (stereo unspecified) | 97.3 | 110 | 113 | 100 | 125 | 107 | 109 | 120 | 111 | 111 | 72.4 | 88.2 | 87.3 | 107 | 62.8 | 92.9 | 97.7 | 102 | 101 | 102 | 84.5 | 43.5 | 117 | 120 | 119 | 82.5 | 107 | 103 | 117 | 123 | 114 | 109 | 59.2
CC[C@H](NC(=O)[C@H](C)NC)C(=O)N1C[C@@H](O)C[C@H]1Cc1c(-c2[nH]c3cc(F)ccc3c2C[C@@H]2C[C@H](O)CN2C(=O)[C@H](CC)NC(=O)[C@H](C)NC)[nH]c2cc(F)ccc12 | 90.7 | 122 | 116 | 116 | 136 | 134 | 129 | 134 | 112 | 119 | 88.2 | – | – | – | – | – | – | – | – | – | – | – | – | – | – | – | – | – | – | – | – | – | –
CC1(N2CCC(n3c([C@@H]4CCCNC4)nc4ccccc43)CC2)CCCCCCC1 | 76.6 | 88.6 | 99.7 | 105 | 105 | 89.3 | 103 | 96 | 92.5 | 72.2 | 42.4 | 99.3 | 87.8 | 105 | 119 | 121 | 107 | 119 | 116 | 109 | 96.6 | 87.3 | 103 | 78.8 | 98.7 | 111 | 106 | 95.7 | 117 | 113 | 130 | 77.3 | 87.6
CCC\C1=C\C(=O)NC(=S)N1 | 71.1 | 74.2 | 98.3 | 30.6 | 119 | 91.1 | 7.27 | 27.9 | 79.2 | 51.5 | 75.9 | 63.3 | 91.9 | 102 | 28 | 121 | 124 | 6.88 | 22.9 | 93.1 | 52.2 | 65 | 69.2 | 74.8 | 91.7 | 54.4 | 89.8 | 125 | 6.6 | 20.3 | 92.4 | 43.1 | 50.8
Cn1cc(/C=C2\C(=O)Nc3cccnc32)c2ccccc21 | 90.8 | 104 | 113 | 117 | 125 | 121 | 115 | 111 | 112 | 44.8 | 30 | 92.5 | 92.5 | 122 | 114 | 99.3 | 105 | 108 | 115 | 98.4 | 31.8 | 21.9 | 105 | 106 | 124 | 101 | 122 | 119 | 114 | 119 | 91.7 | 30.2 | 28
CC/1=C(/C(CC(=O)N1)C2=CC=C(C=C2)C(F)(F)F)C(=O)NC3=C(F)C=C4[NH]N=CC4=C3 (stereo unspecified) | 81.9 | 94.4 | 92.3 | 104 | 91.8 | 89.4 | 95.9 | 89.3 | 114 | 29.9 | 26.5 | 102 | 101 | 94.2 | 94.7 | 84.3 | 92.8 | 108 | 92 | 108 | 31.9 | 31.8 | 97.9 | 80.9 | 102 | 84 | 96.8 | 97.1 | 100 | 96.7 | 109 | 28.2 | 32
Cc1cc(C(=O)N2CCN(c3cccc(Cl)c3)CC2)n(-c2ccccc2)n1 | 109 | 96.7 | 102 | 102 | 109 | 96 | 92.5 | 52.6 | 25.5 | 21.7 | 18.2 | 107 | 118 | 116 | 122 | 107 | 110 | 120 | 81.5 | 34.8 | 17.5 | 15.6 | 105 | 103 | 112 | 89.4 | 114 | 100 | 93.3 | 61.1 | 24.4 | 19.5 | 18.3
COc1cc([C@H]2Oc3cc([C@H]4Oc5cc(O)cc(O)c5C(=O)[C@@H]4O)ccc3O[C@@H]2CO)ccc1O | 63.6 | 105 | 109 | 112 | 117 | 121 | 121 | 105 | 110 | 98.6 | 92.7 | 101 | 118 | 117 | 116 | 121 | 118 | 104 | 120 | 123 | 120 | 108 | 93.5 | 114 | 124 | 124 | 133 | 126 | 124 | 132 | 118 | 120 | 112
COC(=O)C1C2CC3c4[nH]c5cc(OC)ccc5c4CCN3CC2CC(OC(=O)c2cc(OC)c(OC)c(OC)c2)C1OC (stereo unspecified) | 116 | 120 | 119 | 125 | 130 | 119 | 141 | 115 | 116 | 117 | 105 | 97.2 | 120 | 102 | 107 | 113 | 102 | 104 | 112 | 94.8 | 85.2 | 91.4 | 116 | 110 | 113 | 105 | 104 | 134 | 124 | 135 | 128 | 82.1 | 86.6
